Here are results for seven compounds from US20260297042A1, “BIARYLAMIDE DERIVATIVES AND THEIR USE AS PKMYT1 INHIBITORS” (CANCER RESEARCH TECHNOLOGY LIMITED, priority 2023, published 2026).

In one test the target is T1, Human PKMYT1 (Homo sapiens, UniProt Q99640).
T1 construct: Human PKMYT1 75-362 was cloned as a TEV cleavable 6xHis fusion; 6xHis (TEV cleavable) (cleaved yes); made in house; host or cells: bacterial cells
T1 sequence (Q99640 75-362): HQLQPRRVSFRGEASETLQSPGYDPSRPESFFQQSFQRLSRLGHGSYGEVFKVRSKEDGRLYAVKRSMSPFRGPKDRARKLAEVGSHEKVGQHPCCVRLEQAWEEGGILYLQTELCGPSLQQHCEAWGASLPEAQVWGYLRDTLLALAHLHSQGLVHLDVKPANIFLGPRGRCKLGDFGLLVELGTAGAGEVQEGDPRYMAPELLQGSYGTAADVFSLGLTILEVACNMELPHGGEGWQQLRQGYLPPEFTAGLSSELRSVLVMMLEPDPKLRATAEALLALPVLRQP
In words: PKMYT1 biochemical ADP-Glo enzymatic assay. As to conditions: ADP-Glo. Put shortly:
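Intrinsic ATPase activity of E. coli-expressed, tag-cleaved human PKMYT1 kinase domain (75-362), 15 nM, with 500 µM ATP in HEPES pH 7.5/MgCl2/EGTA/Brij-35, 1% DMSO, 60 min at 26 °C. ADP formed was read by ADP-Glo Max luminescence; IC50 from 10-point, 3-fold dilution curves.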

Another test deals with T2, WEE1 (Homo sapiens, UniProt P30291).
T2 construct: purchased Thermo Fisher PR7373A
In words: Selectivity versus WEE1 assay (ADP-Glo enzymatic assay). Type of test: biochemical. The conditions noted are these: for IC50: ADP-Glo; for PKMYT1 vs. WEE1 selectivity: fold difference in selectivity for PKMYT1 over WEE1. A digest of the protocol: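 Kinase at 15 nM final in 50 mM HEPES pH 7.5, 10 mM MgCl2, 1 mM EGTA, 0.01% Brij-35, 1% DMSO was started with 30 µM ATP and run 60 min at 26° C. ADP formed was read by ADP-Glo luminescence; IC50 came from dose-response curves.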
Background: In ADP-Glo the light output rises with the ADP produced.

The subject of the next test is OVCAR 3 cells. Description: Cancer cell line proliferation assay, ATP-based cell viability (Cell Titre Glow), OVCAR 3 (CCNE1-amplified). As to conditions: KYSE30 (normal CCNE1) GI50 vs. OVCAR 3 (CCNE1-amplified) GI50. A digest of the protocol: (§1)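 Luminescence read-out from an ATP-based viability reagent served as the proliferation measure. Values are GI50 estimates, i.e. concentrations producing 50% inhibition of cell growth.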

A further test has as its system KYSE-30 cells. Description: Cancer cell line proliferation assay, ATP-based cell viability (Cell Titre Glow), KYSE-30 (normal CCNE1). The conditions noted are these: Homo sapiens, KYSE-30 cells (normal CCNE1), concentration that achieves 50% cell growth proliferation inhibition, read-out: KYSE30 Gl50. Put shortly:
as §1

The target of test [1] is T3, Cellular PKMYT1 Biomarker CDK1 pT14 (Homo sapiens, UniProt Q99640).
T3 construct: read-out CDK1 phospho-T14 immunoblot
T3 sequence (Q99640 1-499): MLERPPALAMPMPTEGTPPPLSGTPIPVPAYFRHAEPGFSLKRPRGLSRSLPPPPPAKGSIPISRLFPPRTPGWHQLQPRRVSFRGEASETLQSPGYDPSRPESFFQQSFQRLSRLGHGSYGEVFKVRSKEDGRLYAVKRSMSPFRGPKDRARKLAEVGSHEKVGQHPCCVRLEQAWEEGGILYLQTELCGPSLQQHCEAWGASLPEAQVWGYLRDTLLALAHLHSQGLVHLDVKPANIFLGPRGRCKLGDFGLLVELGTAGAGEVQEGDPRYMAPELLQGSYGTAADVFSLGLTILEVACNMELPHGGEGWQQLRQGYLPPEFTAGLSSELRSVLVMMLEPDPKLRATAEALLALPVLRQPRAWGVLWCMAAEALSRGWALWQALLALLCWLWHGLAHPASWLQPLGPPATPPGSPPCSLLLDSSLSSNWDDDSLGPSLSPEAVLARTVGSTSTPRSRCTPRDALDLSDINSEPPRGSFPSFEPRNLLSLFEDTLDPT
In words: Inhibition of cellular PKMYT1 biomarker CDK1 pT14 in OVCAR 3 cells (immunoblot). Type of test: cell-based. The conditions noted are these: 20 hours incubation. Put shortly: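 Confluent OVCAR 3 cells treated with a compound concentration range for 20 h at 37 °C. Lysates analysed by automated capillary immunoblot for CDK1 phospho-T14, with vinculin, fluorescence detection; IC50 by regression.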
In general terms: In western blotting, separated proteins are transferred to a membrane and probed.

The mark [2] stands for this setting: 15 nM PKMYT1 kinase domain, 500 µM ATP, 60 minutes at 26° C., banded.
[3] abbreviates: 15 nM WEE1, 60 minutes at 26° C., banded.
[4] abbreviates: banded, ">N" = at least in this band but could be higher.
Where [5] appears, read: PKMYT1 kinase domain 15 nM, banded values.

T2 sequence (P30291 whole entry): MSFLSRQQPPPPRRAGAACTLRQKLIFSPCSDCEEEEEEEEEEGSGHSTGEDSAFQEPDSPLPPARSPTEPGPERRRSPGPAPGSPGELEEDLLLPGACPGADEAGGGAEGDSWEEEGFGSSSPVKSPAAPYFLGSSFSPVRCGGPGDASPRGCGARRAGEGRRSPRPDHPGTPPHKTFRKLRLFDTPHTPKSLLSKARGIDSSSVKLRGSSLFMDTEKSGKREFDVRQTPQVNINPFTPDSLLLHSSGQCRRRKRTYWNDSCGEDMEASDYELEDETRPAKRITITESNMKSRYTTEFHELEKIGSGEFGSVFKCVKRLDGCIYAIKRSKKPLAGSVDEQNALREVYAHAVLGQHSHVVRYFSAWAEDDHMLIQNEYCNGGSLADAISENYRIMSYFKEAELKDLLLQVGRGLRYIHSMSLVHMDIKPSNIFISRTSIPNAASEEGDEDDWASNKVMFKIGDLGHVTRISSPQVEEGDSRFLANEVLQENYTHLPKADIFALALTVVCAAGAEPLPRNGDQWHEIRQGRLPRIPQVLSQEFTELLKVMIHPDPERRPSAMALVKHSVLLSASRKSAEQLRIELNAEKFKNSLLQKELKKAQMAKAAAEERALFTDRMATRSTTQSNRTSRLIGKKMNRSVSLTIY

As usually defined, the IC50 is the concentration needed to halve the response being measured. A lower IC50 goes with greater potency. For `Cc1ccc(NC(=O)C(C)(C)C)nc1Nc1ncc(C(=O)Nc2c(C)ccc(O)c2C)s1` [BAA-323, N-(3-hydroxy-2,6-dimethylphenyl)-2-((3-methyl-6-pivalamidopyridin-2-yl)amino)thiazole-5-carboxamide], the IC50 against Human PKMYT1 (setting [2]) is below 50 nM; at WEE1 (setting [3]) it was above 11000 nM; in test [1] it was below 100 nM. Moreover, the “PKMYT1 vs. WEE1 selectivity” value at WEE1 (setting [4]) is listed as “Y (1000-5000 fold)”. In addition, in the test with OVCAR 3 cells, the “Selectivity ratio KYSE30 Gl50 vs. OVCAR3 Gl50” value is recorded as “Y (>20 fold)”. Besides, the GI50 with KYSE-30 cells lay in the range of 500 to 5000 nM.
As to `CCN(CC)C(=O)C(C)n1cc(C)c(Nc2ncc(C(=O)Nc3c(C)ccc(O)c3C)s2)n1` (stereo not drawn) [BAA-510, 2-((1-(1-(diethylamino)-1-oxopropan-2-yl)-4-methyl-1H-pyrazol-3-yl)amino)-N-(3-hydroxy-2,6-dimethylphenyl)thiazole-5-carboxamide], the IC50 against Human PKMYT1 (setting [5]) was below 50 nM; on WEE1 (WEE1 15 nM, banded values) it was 1000 to 11000 nM; in test [1], below 100 nM. On WEE1 (banded), the “PKMYT1 vs. WEE1 selectivity” value is “X (100-<1000 fold)”. In addition, the “Selectivity ratio KYSE30 Gl50 vs. OVCAR3 Gl50” value with OVCAR 3 cells is “Y (>20 fold)”. In addition, the GI50 in the test with KYSE-30 cells was above 5000 nM.
On to `Cc1cn(S(=O)(=O)C(C)C)nc1Nc1ncc(C(=O)Nc2c(C)ccc(O)c2C)s1` [BAA-268, N-(3-hydroxy-2,6-dimethylphenyl)-2-((1-(isopropylsulfonyl)-4-methyl-1H-pyrazol-3-yl)amino) thiazole-5-carboxamide], for which the IC50 at Human PKMYT1 (setting [2]) was below 50 nM; on WEE1 (setting [3]) it was above 11000 nM; in test [1], below 100 nM. The “PKMYT1 vs. WEE1 selectivity” value on WEE1 (setting [4]) is listed as “Y (1000-5000 fold)”. Moreover, the “Selectivity ratio KYSE30 Gl50 vs. OVCAR3 Gl50” value in the test with OVCAR 3 cells is on record as “Y (>20 fold)”. In addition, the GI50 in the test with KYSE-30 cells is above 5000 nM.
As for `CCn1nc(Nc2ncc(C(=O)Nc3c(C)ccc(O)c3C)s2)c2cc(C(F)(F)F)ccc21` [BAA-456, 2-((1-ethyl-5-(trifluoromethyl)-1H-indazol-3-yl)amino)-N-(3-hydroxy-2,6-dimethylphenyl)thiazole-5-carboxamide], the IC50 was 50 to 1000 nM at Human PKMYT1 (setting [5]); above 11000 nM against WEE1 (WEE1 15 nM, banded values); below 100 nM in test [1]. For the same compound, at WEE1 (banded), the “PKMYT1 vs. WEE1 selectivity” value was “Y (1000-5000 fold)”. Moreover, the “Selectivity ratio KYSE30 Gl50 vs. OVCAR3 Gl50” value in the test on OVCAR 3 cells was “X (3-20 fold)”. Besides, in the test with KYSE-30 cells, the GI50 is 500 to 5000 nM.
For `Cc1cn(C(CO)C(=O)N2CCCC2)nc1Nc1ncc(C(=O)Nc2c(C)ccc(O)c2C)s1` (stereo not drawn) [BAA-583, 2-((1-(3-Hydroxy-1-oxo-1-(pyrrolidin-1-yl)propan-2-yl)-4-methyl-1H-pyrazol-3-yl)amino)-N-(3-hydroxy-2,6-dimethylphenyl)thiazole-5-carboxamide], the IC50 on Human PKMYT1 (setting [5]) was below 50 nM; on WEE1 (WEE1 15 nM, banded values), 1000 to 11000 nM; in test [1], below 100 nM. For the same compound, the “PKMYT1 vs. WEE1 selectivity” value at WEE1 (banded) is on record as “X (100-<1000 fold)”. In the test with OVCAR 3 cells, the “Selectivity ratio KYSE30 Gl50 vs. OVCAR3 Gl50” value is given as “Y (>20 fold)”. Moreover, in the test with KYSE-30 cells, the GI50 was above 5000 nM.
With `Cc1ccc(O)c(C)c1NC(=O)c1cnc(Nc2cc(Cl)cc(NC(=O)C(C)(C)C)n2)s1.Cl` [BAA-334, 2-((4-chloro-6-pivalamidopyridin-2-yl)amino)-N-(3-hydroxy-2,6-dimethylphenyl)thiazole-5-carboxamide hydrochloride], the IC50 on Human PKMYT1 (setting [2]) was 50 to 1000 nM; against WEE1 (setting [3]), above 11000 nM; in test [1], below 100 nM. In addition, the “PKMYT1 vs. WEE1 selectivity” value at WEE1 (setting [4]) is given as “X (100-<1000 fold)”. For the same compound, the “Selectivity ratio KYSE30 Gl50 vs. OVCAR3 Gl50” value in the test with OVCAR 3 cells was “Y (>20 fold)”. For the same compound, the GI50 in the test on KYSE-30 cells was 500 to 5000 nM.
Consider `Cc1ccc(O)c(C)c1NC(=O)c1cnc(Nc2cccc(N3CCC(NC(=O)OC(C)(C)C)CC3)n2)s1` [BAA-327, tert-butyl(1-(6-((5-((3-hydroxy-2,6-dimethylphenyl)carbamoyl)thiazol-2-yl)amino)pyridin-2-yl)piperidin-4-yl)carbamate], for which the IC50 at Human PKMYT1 (setting [2]) is 50 to 1000 nM; at WEE1 (setting [3]), above 11000 nM; in test [1], 100 to 1000 nM. Moreover, on WEE1 (setting [4]), the “PKMYT1 vs. WEE1 selectivity” value is on record as “X (100-<1000 fold)”. For the same compound, in the test on OVCAR 3 cells, the “Selectivity ratio KYSE30 Gl50 vs. OVCAR3 Gl50” value is listed as “Y (>20 fold)”. Besides, the GI50 with KYSE-30 cells lay in the range of 500 to 5000 nM.
